Laboratory results reported in PubChem BioAssay (NCI).
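GI50 = concentration required for 50% inhibition of growth. TGI is the concentration that stops growth completely.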

Key:
Assay in all cases: inhibition of tumour cell growth, NCI panel, 384-well format; in the data active = GI50 below about 0.43 µM; inactive = the rest
[1] = system: A498 renal
[2] = system: NCI-H322M lung
[3] = system: 786-0 renal
[4] = system: HCT-116 colon
[5] = system: U251 glioblastoma
[6] = system: UACC-62 melanoma
[7] = system: SK-MEL-28 melanoma
[8] = system: UACC-257 melanoma
[9] = system: NCI-H522 lung
[10] = system: SF-268 CNS
[11] = system: MOLT-4 leukemia
[12] = system: SF-295 CNS
[13] = system: UO-31 renal
[14] = system: ACHN renal
[15] = system: SNB-75 CNS
[16] = system: HOP-62 NSCLC
[17] = system: HCT-15 colon
[18] = system: RPMI-8226 leukemia
[19] = system: SN12C renal
[20] = system: CAKI-1 renal
[21] = system: NCI-H23 lung
[22] = system: A549 NSCLC
[23] = system: HOP-92 NSCLC
[24] = system: OVCAR-8 ovarian
[25] = system: MDA-MB-435 melanoma
[26] = system: MDA-MB-231 breast
[27] = system: KM12 colon
[28] = system: NCI-H226 lung
[29] = system: SNB-19 CNS
[30] = system: OVCAR-5 ovarian
[31] = system: M14 melanoma
[32] = system: SW-620 colon
[33] = system: IGROV1 ovarian
[34] = system: MALME-3M melanoma
[35] = system: SF-539 CNS
[36] = system: LOX IMVI melanoma
[37] = system: OVCAR-4 ovarian
[38] = system: COLO 205 colon
[39] = system: HT29 colon
[40] = system: NCI-H460 NSCLC
[41] = system: HL-60(TB) leukemia
[42] = system: PC-3 prostate
[43] = system: CCRF-CEM leukemia
[44] = system: RXF 393 renal
[45] = system: K-562 leukemia
[46] = system: OVCAR-3 ovarian
[47] = system: HCC-2998 colon
[48] = system: TK-10 renal
[49] = system: MCF7 breast
[50] = system: BT-549 breast
[51] = system: MDA-MB-468 breast
[52] = system: DU-145 prostate
[53] = system: SK-OV-3 ovarian
[54] = system: SK-MEL-5 melanoma
[55] = system: EKVX NSCLC
[56] = system: HS 578T breast
[57] = system: NCI/ADR-RES ovarian

COc1ccccc1N1CCN(C(=O)c2ccc(NS(=O)(=O)c3cccc4cccnc34)cc2)CC1
34.6 µM: TGI [45]
56.1 µM: TGI [47]
84.9 µM: TGI [31]
23.6 µM: TGI [18] | TGI [43]
80.9 µM: TGI [44]
42.9 µM: TGI [25]
81.4 µM: TGI [46]
31 µM: TGI [40]
47.4 µM: TGI [10]
inactive: GI50 [1] 71.9 µM | GI50 [2] 53.4 µM | GI50 [3] 40.8 µM | GI50 [4] 32.8 µM | GI50 [5] 40.7 µM | GI50 [6] 58.6 µM | GI50 [7] > 100 µM | GI50 [8] > 100 µM | GI50 [9] 16.8 µM | GI50 [10] 13.7 µM | GI50 [11] 4.05 µM | GI50 [12] > 100 µM | GI50 [13] > 100 µM | GI50 [14] > 100 µM | GI50 [15] > 100 µM | GI50 [16] 32.1 µM | GI50 [17] 28.9 µM | GI50 [18] 10.2 µM | GI50 [19] 61.3 µM | GI50 [20] 74.5 µM | GI50 [21] > 100 µM | GI50 [22] 18.5 µM | GI50 [23] > 100 µM | GI50 [24] 28.1 µM | GI50 [25] 20.4 µM | GI50 [26] 63.5 µM | GI50 [27] > 100 µM | GI50 [28] 8.48 µM | GI50 [29] 52.1 µM | GI50 [30] > 100 µM | GI50 [31] 26.9 µM | GI50 [32] 44.8 µM | GI50 [33] > 100 µM | GI50 [34] > 100 µM | GI50 [35] 32 µM | GI50 [36] > 100 µM | GI50 [37] > 100 µM | GI50 [38] 31.5 µM | GI50 [39] > 100 µM | GI50 [40] 14.1 µM | GI50 [41] 18.2 µM | GI50 [42] 56 µM | GI50 [43] 9.02 µM | GI50 [44] 18.2 µM | GI50 [45] 10 µM | GI50 [46] 24.9 µM | GI50 [47] 12.7 µM | GI50 [48] > 100 µM | GI50 [49] 24.5 µM | GI50 [50] 33 µM | GI50 [51] 4.03 µM | GI50 [52] > 100 µM | GI50 [53] 38.9 µM | GI50 [54] 7.09 µM | GI50 [55] 37.9 µM | GI50 [56] 25.9 µM | GI50 [57] > 100 µM
17.6 µM: TGI [51]
34.2 µM: TGI [9]
> 100 µM: TGI [1] | TGI [2] | TGI [3] | TGI [4] | TGI [5] | TGI [6] | TGI [7] | TGI [8] | TGI [11] | TGI [12] | TGI [13] | TGI [14] | TGI [15] | TGI [16] | TGI [17] | TGI [19] | TGI [20] | TGI [21] | TGI [22] | TGI [23] | TGI [24] | TGI [26] | TGI [27] | TGI [28] | TGI [29] | TGI [30] | TGI [32] | TGI [33] | TGI [34] | TGI [35] | TGI [36] | TGI [37] | TGI [38] | TGI [39] | TGI [42] | TGI [48] | TGI [49] | TGI [50] | TGI [52] | TGI [53] | TGI [54] | TGI [55] | TGI [56] | TGI [57]
33.3 µM: TGI [41]
